From patent EP3046573B1, “AMYLIN ANALOGUES” (Zealand Pharma A/S, priority 2013, dated 2015)
Numbered stars: 1 amine (or outer) side, 2 acyl side, 3 side chain; on linkers, the order of the positions; unused ones are H or OH. Bridge positions count the residues as written; N and C are the ends. Square brackets hold non-standard residues; d marks the D form. Peptide text beside a SMILES is read from it. * marks the point of attachment. C20 diacid = O=C(O)CCCCCCCCCCCCCCCCCCC(=O)*; γGlu = O=C(O)[C@H](CCC(=O)[*:2])N[*:1]; NMeI = CC[C@H](C)[C@H](NC)C(=O)O; Sar = CNCC(=O)O

Key:
[1] = Pharmacokinetic (PK) profiling in rats; format: in vivo; conditions: male, Sprague Dawley, rat, plasma, single sc bolus, 100 nmol/kg (18, NN96), 20 nmol/kg (72, 76), 30 nmol/kg (73, 82, 118, 162, 166, 172); for CL/F: apparent clearance; for half-life: terminal elimination half-life, read-out: t½ (converted)
Experimental: Sprague Dawley male rats were given a single subcutaneous (sc) bolus of each peptide to be tested at doses as specified below..
Study A: Following the administration of a 100 nmol/kg dose of a test peptide of the invention (Compound 18) and a comparison pramlintide analogue NN96 (see Example 5, above), respectively, blood samples were drawn from the tail vein at 0.5, 3, 8, 15, 36, 60 and 81 hours post-dosing. 4 rats were used (2 rats per compound). The rats were euthanized immediately after the last blood sampling by overdose of O2/CO2.
Study B: 20 nmol/kg doses of Compound 72 and Compound 76, respectively, of the invention were administered. Blood samples were drawn by sublingual bleeding prior to dosing and at 2, 6, 12, 24, 48, 72 and 96 hours after dosing. 4 rats were used (2 rats per compound). The rats were euthanized immediately after the last blood sampling by overdose of O2/CO2.
Study C: 30 nmol/kg doses of Compound 73, Compound 82 and Compound 118, respectively, of the invention were administered. Blood samples were drawn from the tail vein prior to dosing and at 24, 48, 72 and 96 hours after dosing. Blood samples were taken from two rats at each time point, and only 2 blood samples were drawn from each rat, i.e. 8 rats were used for each compound. The rats were euthanized immediately after the last blood sampling by concussion and cervical dislocation.
Study D: 30 nmol/kg doses of Compound 162, Compound 166 and Compound 172 were administered. Blood samples were drawn from the tail vein prior to dosing and at 24, 48, 72, 96 and 168 hours after dosing. Blood samples were taken from two rats at each time point, and only 2 blood samples were drawn from each rat, i.e. 10 rats were used for each compound. The rats were euthanized immediately after the last blood sampling by concussion and cervical dislocation.
The dosing vehicle used for each test peptide was a mannitol-containing histidine buffer (pH 7.0). Plasma samples were analyzed after precipitation with ethanol by liquid chromatography mass spectrometry (LC-MS/MS). Mean plasma concentrations were used for calculation of the pharmacokinetic parameters using the non-compartmental approach in Phoenix WinNonlin 6.3.
Plasma terminal elimination half-life (t½) was determined as In(2)/λz, where λz is the magnitude of the slope of the log linear regression of the log concentration versus time profile during the terminal phase. Apparent clearance (CL/F) was determined as dose/AUCinf (sc), where AUCinf is the area under the plasma concentration vs. time curve extrapolated to infinity (AUCinf = AUClast + Clast/λz, where Clast is the last observed plasma concentration).

[2] = Assessment of chemical stability: normalized purity by RP-HPLC after incubation at 40 °C; format: physicochemical; conditions: normalized purity (T=0 set to 100), 0.2 mg/ml
Experimental: Samples of each test peptide were dissolved in MilliQ™ water, and the pH of the solution was adjusted to pH 4, pH 7.5 or pH 9, respectively, using either HCI or NaOH. The final peptide concentration was 0.2 mg/ml. Samples were placed in glass vials and incubated at 40 °C. The samples were analyzed by RP-HPLC on a C8 column with gradient elution using an ammonium formate/water eluent system, or on a C18 column with gradient elution using a trifluoroacetic acid/water eluent system. The area-percentage (area-%) of the main peak after incubation time T = t (relative to time T = 0) was determined by UV spectroscopy at 220 nm.
The purity was first determined as follows: Purity(area−%) = (area of main peak/total area of all peaks) × 100. [formula]
The purity was then normalized between time points by setting purity at time 0 (T=0) to 100 for each pH value for a given peptide, as follows: Normalised area−%at time t(T = t) = [area−%(T = t)/area−%(T = 0)] × 100. [formula]
The normalized purity values in Table 2 were determined after 7 days of incubation. Table 2. EC50, chemical stability and fibrillation data for compounds of the invention

| Structure (SMILES) | CL/F [1] [mL/h/kg] | half-life [1] [h] | Chem. stability; 7 days, 40°C pH 4 ([2]; pH 4, 7 days) [area-%] | Chem. stability; 7 days, 40°C pH 7.5 ([2]; pH 7.5, 7 days) [area-%] | Chem. stability; 7 days, 40°C pH 9 ([2]; pH 9, 7 days) [area-%] |
| --- | --- | --- | --- | --- | --- |
| CC[C@H](C)[C@@H](C(=O)N[C@@H](CC(C)C)C(=O)N[C@H](CO)C(=O)N[C@@H](CO)C(=O)N[C@H](C(=O)N[C@@H](CC(N)=O)C(=O)N[C@H](C(=O)NCC(=O)N[C@@H](CO)C(=O)N[C@@H](CC(N)=O)C(=O)N[C@H](C(=O)N1CCC[C@H]1C(N)=O)[C@@H](C)O)C(C)C)[C@@H](C)O)N(C)C(=O)[C@H](C)NC(=O)CN(C)C(=O)[C@@H](Cc1ccccc1)NC(=O)[C@H](CC(N)=O)NC(=O)[C@H](CC(N)=O)NC(=O)[C@H](CO)NC(=O)[C@H](CO)NC(=O)[C@H](CCCNC(=N)N)NC(=O)[C@H](Cc1c[nH]cn1)NC(=O)[C@H](CC(C)C)NC(=O)[C@H](Cc1ccccc1)NC(=O)[C@H](CCC(=O)O)NC(=O)[C@H](C)NC(=O)[C@H](CC(C)C)NC(=O)[C@H](CCCNC(=N)N)NC(=O)[C@H](CCC(N)=O)NC(=O)[C@@H](NC(=O)[C@H](C)NC(=O)[C@@H]1CSSC[C@H](NC(=O)[C@H](CCCCN)NC(=O)CC[C@H](NC(=O)CCCCCCCCCCCCCCCCCCC(=O)O)C(=O)O)C(=O)N[C@@H](CC(N)=O)C(=O)N[C@@H]([C@@H](C)O)C(=O)N[C@@H](C)C(=O)N[C@@H]([C@@H](C)O)C(=O)N1)[C@@H](C)O [Compound 72, [19CD]-isoGlu-KC()NTATC()ATQRLAEFLHRSSNN-DPhe-Gly(Me)-A-Ile(Me)-L-DSer-STNVGSNTP] ({C20 diacid-γGlu}-KCNTATCATQRLAEFLHRSSNN[dF][Sar]A[NMeI]L[dS]STNVGSNTP-NH2; disulfide 2-7) | 2.7 | 30.9 | 90 | 81 | 80 |
| CC[C@H](C)[C@@H](C(=O)N[C@@H](CC(C)C)C(=O)N[C@@H](CO)C(=O)N[C@@H](CO)C(=O)N[C@H](C(=O)N[C@@H](CC(=O)O)C(=O)N[C@H](C(=O)NCC(=O)N[C@@H](CO)C(=O)N[C@@H](CC(=O)O)C(=O)N[C@H](C(=O)N1CCC[C@H]1C(N)=O)[C@@H](C)O)C(C)C)[C@@H](C)O)N(C)C(=O)[C@H](C)NC(=O)CN(C)C(=O)[C@H](Cc1ccccc1)NC(=O)[C@H](CO)NC(=O)[C@H](CO)NC(=O)[C@H](CCCNC(=N)N)NC(=O)[C@H](Cc1c[nH]cn1)NC(=O)[C@H](CC(C)C)NC(=O)[C@H](Cc1ccccc1)NC(=O)[C@H](CCC(=O)O)NC(=O)[C@H](C)NC(=O)[C@H](CC(C)C)NC(=O)[C@H](CCCNC(=N)N)NC(=O)[C@H](CC(=O)O)NC(=O)[C@@H](NC(=O)[C@H](C)NC(=O)[C@@H]1CSSC[C@H](NC(=O)[C@H](CCCNC(=N)N)NC(=O)CC[C@H](NC(=O)CCCCCCCCCCCCCCCCCCC(=O)O)C(=O)O)C(=O)N2CCC[C@H]2C(=O)N[C@@H]([C@@H](C)O)C(=O)N[C@@H](C)C(=O)N[C@@H]([C@@H](C)O)C(=O)N1)[C@@H](C)O [Compound 172, [19CD]-isoGlu-RC()PTATC()ATDRLAEFLHRSSF-Gly(Me)-A-Ile(Me)-LSSTDVGSDTP-NH2] ({C20 diacid-γGlu}-RCPTATCATDRLAEFLHRSSF[Sar]A[NMeI]LSSTDVGSDTP-NH2; disulfide 2-7) | 9.16 | 24.4 |  |  |  |
| CC[C@H](C)[C@H](NC(=O)[C@@H]1CCCN1C(=O)CNC(=O)[C@H](Cc1ccccc1)NC(=O)[C@H](CC(N)=O)NC(=O)[C@H](CC(N)=O)NC(=O)[C@H](CO)NC(=O)[C@H](CO)NC(=O)[C@H](Cc1c[nH]cn1)NC(=O)[C@H](Cc1c[nH]cn1)NC(=O)[C@H](CC(C)C)NC(=O)[C@H](Cc1ccccc1)NC(=O)[C@H](CCC(=O)O)NC(=O)[C@H](C)NC(=O)[C@H](CC(C)C)NC(=O)[C@H](CCCNC(=N)N)NC(=O)[C@H](CCC(N)=O)NC(=O)[C@@H](NC(=O)[C@H](C)NC(=O)[C@@H]1CSSC[C@H](NC(=O)[C@H](CCCNC(=N)N)NC(=O)CC[C@H](NC(=O)CCCCCCCCCCCCCCCCCCC(=O)O)C(=O)O)C(=O)N[C@@H](CC(N)=O)C(=O)N[C@@H]([C@@H](C)O)C(=O)N[C@@H](C)C(=O)N[C@@H]([C@@H](C)O)C(=O)N1)[C@@H](C)O)C(=O)N[C@@H](CC(C)C)C(=O)N1CCC[C@H]1C(=O)N1CCC[C@H]1C(=O)N[C@H](C(=O)N[C@@H](CC(N)=O)C(=O)N[C@H](C(=O)NCC(=O)N[C@@H](CO)C(=O)N[C@@H](CC(N)=O)C(=O)N[C@H](C(=O)N1CCC[C@H]1C(N)=O)[C@@H](C)O)C(C)C)[C@@H](C)O [NN96, N-α-[(S)-4-carboxy-4-(19-carboxynonadecanoylamino)butyryl]-[Arg1,Glu14,His17,Pro37]-pramlintide, reference compound] ({C20 diacid-γGlu}-RCNTATCATQRLAEFLHHSSNNFGPILPPTNVGSNTP-NH2; disulfide 2-7) | 4.73 | 34.7 |  |  |  |
